# What was measured:
# [1] = system: tumor parenchyma; assay: Tumor penetration with iRGD in place of Lyp-1; assay type: in vivo; settings: data not shown
# [2] = system: HeLa cells; assay: Inhibition of endocytosis (uptake and GFP knockdown with small molecule inhibitors); assay type: cell-based, human; settings: HeLa cells pre-incubated with inhibitor 1 h
# Method: HeLa cells grown in 96-well plates at ˜70% confluence were incubated with small molecule inhibitors for 1 h at 37° C., followed by incubation with tetramethylrhodamine-labeled TP-LyP1 (3 μM) or TPNs containing both labeled peptide (3 μM) and GFP siRNA (100 nM) for an additional hour at 37° C. The cells were washed three times with cold PBS and were subsequently either imaged with a CCD camera mounted on a Nikon TE200 inverted epifluorescence microscope (for peptide-only), or trypsinized for flow cytometry analysis by the BD-LSR II system to assess GFP expression (for incubations with nanocomplexes).
# To identify the mechanism by which tandem peptides enter cells, these experiments were repeated in the presence of a variety of endocytosis inhibitors [Veldhoen, S., Laufer, S. D., Trampe, A. & Restle, T. Cellular delivery of small interfering RNA by a non-covalently attached cell-penetrating peptide: quantitative analysis of uptake and biological effect. Nucleic Acids Res 34, 6561-6573, (2006)]. […] Thus, tandem peptides are taken up by cells mainly via macropinocytosis and lipid-raft.
# [3] = molecular target: T1, p32 receptor (Homo sapiens, UniProt Q07021); assay: Competition of GFP silencing with free LyP-1 peptide; assay type: cell-based; settings: nanocomplexes on HeLa cells
# T1 construct: incubated over Hela cells, which express p32 on the cell surface; endogenous in cells; host or cells: HeLa (stably expressing dGFP)
# T1 sequence (Q07021 74-282): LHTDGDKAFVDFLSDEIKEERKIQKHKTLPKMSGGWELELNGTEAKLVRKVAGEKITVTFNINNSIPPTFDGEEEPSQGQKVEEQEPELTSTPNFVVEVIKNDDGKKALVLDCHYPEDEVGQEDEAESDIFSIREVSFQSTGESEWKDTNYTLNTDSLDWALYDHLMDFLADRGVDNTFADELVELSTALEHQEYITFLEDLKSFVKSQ
# Method: For the initial screen, HeLa cells stably expressing destabilized GFP were cultured in 96-well plates to ˜70-80% confluence. siRNA (0-100 nM) was incubated with 20-fold molar excess of tetramethylrhodamine-labelled tandem peptides in PBS for 10-15 min at room temperature, then incubated over cells in DMEM for 4 h at 37° C., after which the medium was replaced. The complexes were then added to HeLa cell cultures and incubated for 4 h at 37° C., after which the medium was replaced with 100 μL of fresh medium with 10% serum. […] For competition experiments with free LyP-1 peptide, cells were pre-incubated with unlabeled LyP-1 peptide or ARAL control peptide at specified concentrations for 1 h at 37° C. before treatment with peptide/siRNA complexes.
molecule,measurement,setting,value
CRGDKGPDC [iRGD],tumor penetration,[1],penetrate tumor parenchyma in a to time-dependent manner
N=C(N)NC(=O)c1nc(Cl)c(N)nc1N [amiloride],GFP knockdown in presence of inhibitor,[2],significantly decreased
same,cell binding of tandem peptide in presence of inhibitor,[2],significantly decreased
ARALPSQRSR [control peptide],effect of control peptide on GFP silencing,[3],no effect
OCC1OC(O)CC(O)C1O (stereo not drawn) [Deoxyglucose],GFP knockdown in presence of inhibitor,[2],inhibited GFP knockdown
CCCCCCCCCC(=O)NC(CN1CCOCC1)C(O)c1ccccc1 (stereo not drawn) [PDMP],GFP knockdown in presence of inhibitor,[2],significantly decreased
same,cell binding of tandem peptide in presence of inhibitor,[2],significantly decreased
OC[C@H]1O[C@@H]2O[C@H]3[C@H](O)[C@@H](O)[C@@H](O[C@H]4[C@H](O)[C@@H](O)[C@@H](O[C@H]5[C@H](O)[C@@H](O)[C@@H](O[C@H]6[C@H](O)[C@@H](O)[C@@H](O[C@H]7[C@H](O)[C@@H](O)[C@@H](O[C@H]8[C@H](O)[C@@H](O)[C@@H](O[C@H]1[C@H](O)[C@H]2O)O[C@@H]8CO)O[C@@H]7CO)O[C@@H]6CO)O[C@@H]5CO)O[C@@H]4CO)O[C@@H]3CO [β-cyclodextrin],GFP knockdown in presence of inhibitor,[2],significantly decreased
same,cell binding of tandem peptide in presence of inhibitor,[2],significantly decreased
